Data published in ChEMBL document CHEMBL1125390, “Design and synthesis of novel 6,7-imidazotetrahydroquinoline inhibitors of thymidylate synthase using iterative protein crystal structure analysis” (J Med Chem, 1992).
pIC50, pKi: −log10 of the molar value.

Legend:
CCRF-CEM = experiment: Compound was tested for the inhibition of human CCRF-CEM leukemia cell growth
GC3M(-) [1] = experiment: Compound was tested for the inhibition of thymidine kinase deficient human adenocarcinoma GC3M(-) cell growth
L1210 = experiment: Compound was tested for the inhibition of mouse L1210 leukemia cell growth
GC3M(-) [2] = experiment: Compound was evaluated for cellular growth inhibition in thymidine kinase deficient human adenocarcinoma GC3M(-) cell line
Thymidylate synthase = Thymidylate synthase (Escherichia coli, UniProt C3SWJ7)
Sequence of Thymidylate synthase (C3SWJ7 whole entry): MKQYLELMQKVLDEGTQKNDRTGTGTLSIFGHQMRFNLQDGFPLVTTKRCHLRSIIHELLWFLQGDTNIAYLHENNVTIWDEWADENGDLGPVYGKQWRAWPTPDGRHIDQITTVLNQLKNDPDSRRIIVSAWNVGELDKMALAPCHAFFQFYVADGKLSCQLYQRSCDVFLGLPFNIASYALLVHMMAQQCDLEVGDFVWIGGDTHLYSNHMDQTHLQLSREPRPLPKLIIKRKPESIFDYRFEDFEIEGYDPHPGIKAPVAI
Description: Inhibition of Escherichia coli Thymidylate synthase (TS)

Compound | pIC50 (CCRF-CEM) | pIC50 (L1210) | pKi (Thymidylate synthase) | pIC50 (GC3M(-) [1]) | pIC50 (GC3M(-) [2])
CNc1nc2cc3c(cc2[nH]1)N(Cc1ccc(S(=O)(=O)c2ccccc2)cc1)CCC3 | 5.48 | 5.52 | 5.07 | < 5.30 | 
COc1ccc(S(=O)(=O)c2ccc(CN3CCCc4cc5c(cc43)nc(N)n5C)cc2)cc1 | 6.05 | 6.30 | 6.30 | 5.52 | 
CSc1nc2cc3c(cc2[nH]1)N(Cc1ccc(S(=O)(=O)c2ccccc2)cc1)CCC3 | < 5.00 | < 5.00 | < 5.52 | < 5.00 | 
Nc1nc2cc3c(cc2[nH]1)N(Cc1ccc(S(=O)(=O)c2ccccc2)cc1)CCC3 |  |  |  | < 5.30 | 
O=S(=O)(c1ccc(CN2CCCc3cc4[nH]cnc4cc32)cc1)N1CCNCC1 |  |  |  | 4.37 | 
Nc1nc2cc3c(cc2[nH]1)N(Cc1ccc(S(=O)(=O)N2CCNCC2)cc1)CCC3 |  | 5.70 |  | < 4.30 | 

Now from value to compound, other results behind:

pIC50 (CCRF-CEM) | pIC50 (L1210) | pKi (Thymidylate synthase) | Compound | pIC50 (GC3M(-) [1]) | pIC50 (GC3M(-) [2])
5.40 | 5.40 |  | Nc1nc2cc3c(cc2[nH]1)N(Cc1ccc(S(=O)(=O)N2CCOCC2)cc1)CCC3 | 5.07 | 
4.40 | 4.70 |  | Nc1nc2cc3c(cc2[nH]1)N(Cc1ccc(C(=O)NC(CCC(=O)O)C(=O)O)cc1)CCC3 (configuration not stated) |  | < 4.30
5.10 | 5.55 | 5.89 | COc1ccc(S(=O)(=O)c2ccc(CN3CCCc4cc5nc(C)[nH]c5cc43)cc2)cc1 | 5.39 | 
4.66 | 4.92 |  | Nc1nc2cc3c(cc2[nH]1)N(Cc1ccc(S(=O)(=O)c2ccc(O)cc2)cc1)CCC3 |  | < 4.30
5.29 | 5.59 |  | COc1ccc(S(=O)(=O)c2ccc(CN3CCCc4cc5[nH]c(N)nc5cc43)cc2)cc1 | 5.05 | 
5.74 | 5.98 | 5.28 | COc1ccc(S(=O)(=O)c2ccc(CN3CCCc4cc5c(cc43)nc(C)n5C)cc2)cc1 | < 5.30 | 
< 5.00 | 5.12 |  | Nc1nc2cc3c(cc2[nH]1)CCCC3Sc1ccc(S(=O)(=O)c2ccccc2)cc1 (configuration not stated) | < 5.00 | 
< 5.30 | 5.51 |  | Nc1nc2cc3c(cc2[nH]1)N(Cc1ccc2cc(CO)ccc2c1)CCC3 | < 5.30 | 
